Literature values in patent publication US20150132347A1, “TREATING INFLAMMATORY CONDITIONS AND IMPROVING ORAL HYGIENE USING METAL MODULATORS WITH METHYLSULFONYLMETHANE AS TRANSPORT ENHANCER” (priority 2012, published 2015).

Details: in water @ 79° F.

SMILES: CS(C)(=O)=O [MSM, methylsulfonylmethane]
- water solubility: 34 % w/v
